This is an account of results in patent US12606571B2, “Macrocyclic compounds and uses thereof” (TURNING POINT THERAPEUTICS, INC., priority 2017, dated 2026).

Where two headings read alike, the source gives them in different places.

In test [1] the test system is HCC827 cells. The test is described as follows: HCC827 cell proliferation assay, single agents and combinations. In kind it is cell-based, human.
Another test concerns the target T1, MET (Homo sapiens, UniProt P08581).
T1 construct: purchased Reaction Biology Corporation (assay service; enzyme from the CRO's panel)
Description: Biochemical kinase assay (Reaction Biology), MET. As to conditions: 10 μM ATP; read-out: Enzymatic Kinase MET IC50. The method, then: (§1) Specific kinase/substrate pairs along with required cofactors were prepared in reaction buffer; 20 mM Hepes pH 7.5, 10 mM MgCl2,1 mM EGTA, 0.02% Brij35, 0.02 mg/ml BSA, 0.1 mM Na3VO4, 2 mM DTT, 1% DMSO (for specific details of individual kinase reaction components see Supplementary Table 2). Compounds were delivered into the reaction, followed ˜20 minutes later by addition of a mixture of ATP (Sigma, St. Louis MO) and ^33P ATP (Perkin Elmer, Waltham MA) to a final concentration of 10 μM. Reactions were carried out at room temperature for 120 min, followed by spotting of the reactions onto P81 ion exchange filter paper (Whatman Inc., Piscataway, NJ). […] IC50 values and curve fits were obtained using Prism (GraphPad Software).
(§2) The enzymatic kinase inhibition activities at 10 μM ATP concentration were determined at Reaction Biology.

In test [2] the test system is MKN-45 cells. The test is described as follows: MET cell proliferation assay, MKN-45 (CellTiter-Glo). As to conditions: Homo sapiens, 72 hours treatment. In kind it is cell-based. The method, then: (§3) Two thousand cells per well were seeded in 384 well white plate for 24 hrs, and then treated with compounds for 72 hours (37° C., 5% CO2). Cell proliferation was measured using CellTiter-Glo luciferase-based ATP detection assay (Promega) following the manufacturer's protocol. IC50 determinations were performed using GraphPad Prism software (GraphPad, Inc., San Diego, CA).
(§4) The anti-cell proliferation activities against MET and CSF1R driven cell lines were conducted with MKN-45, SNU-5, Ba/F3 TEL-CSF1R cells, and M-NFS-60 respectively.

A further test deals with SNU-5 cells. Description: MET cell proliferation assay, SNU-5 (CellTiter-Glo). In kind it is cell-based. The settings on record: Homo sapiens, 72 hours treatment. The method, then: as §3, §4
The next test has as its target T2, SRC (Homo sapiens, UniProt P12931).
T2 construct: purchased Reaction Biology Corporation (assay service; enzyme from the CRO's panel)
Description: Biochemical kinase assay (Reaction Biology), SRC. The settings on record: 10 μM ATP; read-out: Enzymatic Kinase SRC IC50. The method, then: as §1, with “The biochemical kinase assay was performed at Reaction Biology Corporation (www.reactionbiology.com, Malvern, PA) following the procedures described in the reference (Anastassiadis T, et al Nat Biotechnol. 2011, 29, 1039). Specific” for “Specific”, “NJ). Unbound phosphate was removed by extensive washing of filters in 0.75% phosphoric acid.” for “NJ).”
as §2

A further test has as its target T3, c-FMS (CSF1R) (Homo sapiens, UniProt P07333).
T3 construct: purchased Reaction Biology Corporation (assay service; enzyme from the CRO's panel)
The test is described as follows: Biochemical kinase assay (Reaction Biology), c-FMS (CSF1R). The settings on record: 10 μM ATP; read-out: Enzymatic Kinase c-FMS (CSF1R) IC50. The method, then:
as §1, §2

The test system of the next test is M-NFS-60 cells. The test is described as follows: M-NFS-60 cell proliferation at varied CSF-1. The format is cell-based. As to conditions: Mus musculus, read-out: M-NFS-60 IC50. The method, then:
as §3, §4

The test system of test [3] is MKN-45 cells. Description: Scratch wound healing assay, MKN-45. In kind it is cell-based. As to conditions: 36-48 hours treatment. The method, then: (§5) MKN-45 or HCC827 cells were seeded in 24-well plate. After 12-24 hours, confluent cell monolayers were gently scraped with a sterile pipette tip to form a scratch. The plates were washed with fresh medium, and the cells were incubated with medium alone or medium containing various concentration of compounds. After 36-48 hours, the plates were examined and recorded by an EVOS FL microscopy (Life Technology) to monitor rescaling of the cell monolayer.

In test [4] the test system is HCC827 cells. The test is described as follows: Scratch wound healing assay, HCC827. In kind it is cell-based, human. The settings on record: 36-48 hours treatment. The method, then:
as §5

T1 sequence (P08581 25-1390): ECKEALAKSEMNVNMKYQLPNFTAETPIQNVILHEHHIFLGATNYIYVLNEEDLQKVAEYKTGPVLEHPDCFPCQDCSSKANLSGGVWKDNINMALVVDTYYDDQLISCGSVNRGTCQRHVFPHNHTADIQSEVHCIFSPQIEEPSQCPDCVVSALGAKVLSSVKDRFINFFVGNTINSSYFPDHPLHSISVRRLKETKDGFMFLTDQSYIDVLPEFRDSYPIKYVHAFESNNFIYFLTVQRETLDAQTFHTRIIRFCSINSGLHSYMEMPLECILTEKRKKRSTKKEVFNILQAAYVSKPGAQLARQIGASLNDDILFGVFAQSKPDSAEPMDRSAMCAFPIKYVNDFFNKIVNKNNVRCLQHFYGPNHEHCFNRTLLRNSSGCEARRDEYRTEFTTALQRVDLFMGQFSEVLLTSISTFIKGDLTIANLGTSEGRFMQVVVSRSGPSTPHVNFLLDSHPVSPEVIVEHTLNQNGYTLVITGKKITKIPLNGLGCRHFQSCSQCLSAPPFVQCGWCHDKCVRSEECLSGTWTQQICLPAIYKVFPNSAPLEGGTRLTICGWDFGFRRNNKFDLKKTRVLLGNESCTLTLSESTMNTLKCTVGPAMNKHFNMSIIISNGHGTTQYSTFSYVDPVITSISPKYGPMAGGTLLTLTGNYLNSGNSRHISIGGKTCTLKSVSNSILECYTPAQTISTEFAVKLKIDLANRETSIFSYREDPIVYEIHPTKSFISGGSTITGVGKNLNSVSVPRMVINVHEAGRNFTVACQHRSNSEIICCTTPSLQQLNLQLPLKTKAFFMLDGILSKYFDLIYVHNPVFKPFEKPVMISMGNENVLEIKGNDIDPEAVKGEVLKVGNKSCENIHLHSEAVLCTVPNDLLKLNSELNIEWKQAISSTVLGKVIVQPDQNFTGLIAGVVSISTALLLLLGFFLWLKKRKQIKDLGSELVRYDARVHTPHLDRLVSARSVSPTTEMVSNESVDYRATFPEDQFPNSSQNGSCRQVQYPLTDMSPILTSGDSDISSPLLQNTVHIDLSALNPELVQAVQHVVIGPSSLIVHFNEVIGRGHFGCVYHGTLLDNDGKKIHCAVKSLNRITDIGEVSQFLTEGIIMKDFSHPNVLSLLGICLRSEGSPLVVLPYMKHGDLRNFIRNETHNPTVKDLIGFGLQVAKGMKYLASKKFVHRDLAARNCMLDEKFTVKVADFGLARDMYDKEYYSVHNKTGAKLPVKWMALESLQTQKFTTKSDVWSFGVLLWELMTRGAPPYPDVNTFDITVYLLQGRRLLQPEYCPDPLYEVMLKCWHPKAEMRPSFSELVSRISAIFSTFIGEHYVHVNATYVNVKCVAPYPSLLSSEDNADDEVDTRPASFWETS
T2 sequence (P12931 whole entry): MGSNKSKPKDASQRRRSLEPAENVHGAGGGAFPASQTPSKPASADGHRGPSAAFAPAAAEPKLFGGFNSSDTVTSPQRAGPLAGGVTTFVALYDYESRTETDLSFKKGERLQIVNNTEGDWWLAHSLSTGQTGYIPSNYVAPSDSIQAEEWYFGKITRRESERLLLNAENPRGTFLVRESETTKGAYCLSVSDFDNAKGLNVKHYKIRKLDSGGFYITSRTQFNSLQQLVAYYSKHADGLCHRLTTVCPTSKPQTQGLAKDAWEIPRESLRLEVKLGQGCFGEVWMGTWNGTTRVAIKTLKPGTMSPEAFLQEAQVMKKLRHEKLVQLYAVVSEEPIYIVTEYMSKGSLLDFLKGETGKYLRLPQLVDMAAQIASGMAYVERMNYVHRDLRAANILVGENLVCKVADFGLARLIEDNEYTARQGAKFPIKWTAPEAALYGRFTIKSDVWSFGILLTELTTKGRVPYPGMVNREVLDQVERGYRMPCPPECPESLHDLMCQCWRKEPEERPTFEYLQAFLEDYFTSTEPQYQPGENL
T3 sequence (P07333 20-972): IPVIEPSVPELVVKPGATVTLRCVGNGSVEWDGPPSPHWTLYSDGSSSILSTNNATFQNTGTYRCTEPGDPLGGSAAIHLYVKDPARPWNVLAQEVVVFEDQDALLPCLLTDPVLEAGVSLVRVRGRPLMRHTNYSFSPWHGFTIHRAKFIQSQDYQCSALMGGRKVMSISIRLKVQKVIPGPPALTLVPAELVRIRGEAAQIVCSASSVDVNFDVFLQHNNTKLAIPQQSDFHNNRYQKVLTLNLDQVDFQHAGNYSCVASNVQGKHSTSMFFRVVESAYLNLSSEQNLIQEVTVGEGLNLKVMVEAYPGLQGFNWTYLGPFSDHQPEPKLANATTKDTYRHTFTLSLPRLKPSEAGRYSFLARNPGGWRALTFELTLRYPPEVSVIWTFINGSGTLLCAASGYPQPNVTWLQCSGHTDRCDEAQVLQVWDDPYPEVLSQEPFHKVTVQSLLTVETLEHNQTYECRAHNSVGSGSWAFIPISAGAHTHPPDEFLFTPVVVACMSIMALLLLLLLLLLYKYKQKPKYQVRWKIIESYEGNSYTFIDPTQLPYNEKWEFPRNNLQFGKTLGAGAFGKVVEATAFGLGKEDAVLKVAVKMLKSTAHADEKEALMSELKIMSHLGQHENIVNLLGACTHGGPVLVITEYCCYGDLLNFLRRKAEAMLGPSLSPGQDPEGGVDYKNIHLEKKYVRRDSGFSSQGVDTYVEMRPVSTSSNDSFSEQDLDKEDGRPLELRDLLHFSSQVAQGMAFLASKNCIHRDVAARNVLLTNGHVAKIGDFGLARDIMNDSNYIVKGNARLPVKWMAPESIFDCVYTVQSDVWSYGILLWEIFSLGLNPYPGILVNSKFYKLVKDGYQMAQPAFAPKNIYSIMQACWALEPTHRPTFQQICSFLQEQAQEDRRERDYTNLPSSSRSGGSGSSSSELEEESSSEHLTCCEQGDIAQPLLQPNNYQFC

Regarding `C=CC(=O)Nc1cc(Nc2nccc(-c3cn(C)c4ccccc34)n2)c(OC)cc1N(C)CCN(C)C` [AZD9291], in the test on HCC827 cells [1] (Homo sapiens, HCC827, read-out: HCC827 cell proliferation Emax (maximum inhibition)), the Emax was found to be 47%. Moreover, the IC50 in the test with HCC827 cells [1] (Homo sapiens, HCC827, read-out: HCC827 cell proliferation IC50) was 5 nM.
Regarding `CCN1Cc2c(ccc(F)c2Cl)O[C@@H](C)CNC(=O)c2c(N)nn3ccc1nc23` [Compound 1, (7S)-3-amino-12-chloro-14-ethyl-11-fluoro-7-methyl-6,7,13,14-tetrahydro-1,15-ethenopyrazolo[4,3-f][1,4,8,10]benzoxatriazacyclotridecin-4(5H)-one], the results for the IC50 at MET, in the test on MKN-45 cells [2] and in the test on SNU-5 cells were 20.4 nM, 193 nM and 174 nM, respectively.
For `CCN1Cc2c(C#N)cccc2O[C@@H](C)CNC(=O)c2cnn3ccc1nc23` [Compound 2, (7S)-14-ethyl-7-methyl-4-oxo-4,5,6.7,13,14-hexahydro-1,15-ethenopyrazolo[4,3-f][1,4,8,10]benzoxatriazacyclotridecine-12-carbonitrile], the IC50 at SRC turned out to be 3 nM; at MET it was 36.5 nM; in the test with MKN-45 cells [2] it was 129 nM; in the test with SNU-5 cells it was 136 nM.
Taken in the same sequence, the figures for `CCN1Cc2c(C#N)cccc2OCCNC(=O)c2cnn3ccc1nc23` [Compound 3, 14-ethyl-4-oxo-4,5,6,7,13,14-hexahydro-1,15-ethenopyrazolo[4,3-f][1,4,8,10]benzoxatriazacyclotridecine-12-carbonitrile] were 97.1 nM, 110 nM, 471 nM and 674 nM.
In the case of `CCN1Cc2c(ccc(F)c2C#N)O[C@@H](C)CNC(=O)c2cnn3ccc1nc23` [Compound 4, (7S)-14-ethyl-11-fluoro-7-methyl-4-oxo-4,5,6,7,13,14-hexahydro-1,15-ethenopyrazolo[4,3-f][1,4,8,10]benzoxatriazacyclotridecine-12-carbonitrile], the IC50 is 0.49 nM on SRC; 1.85 nM on MET; 0.42 nM at c-FMS (CSF1R); 12 nM in the test with MKN-45 cells [2]; 5.8 nM with SNU-5 cells.
On to `CCN1Cc2c(C#N)cccc2O[C@@H](C)CNC(=O)c2c(N)nn3ccc1nc23` [Compound 6, (7S)-3-amino-14-ethyl-7-methyl-4-oxo-4,5,6,7,13,14-hexahydro-1,15-ethenopyrazolo[4,3-f][1,4,8,10]benzoxatriazacyclotridecine-12-carbonitrile], for which the IC50 worked out at 13.6 nM at SRC, 9.7 nM at MET, 58.3 nM in the test with MKN-45 cells [2] and 36.8 nM in the test on SNU-5 cells.
On the same counts, the results for `C[C@H]1CNC(=O)c2c(N)nn3ccc(nc23)N(CC2CC2)Cc2c(ccc(F)c2C#N)O1` [Compound 7, (7S)-3-amino-14-(cyclopropylmethyl)-11-fluoro-7-methyl-4-oxo-4,5,6,7,13,14-hexahydro-1,15-ethenopyrazolo[4,3-f][1,4,8,10]benzoxatriazacyclotridecine-12-carbonitrile] are 0.7 nM, 2.2 nM, 17.7 nM and 1 nM.
Regarding `CC(C)N1Cc2c(ccc(F)c2C#N)O[C@@H](C)CNC(=O)c2c(N)nn3ccc1nc23` [Compound 8, (7S)-3-amino-11-fluoro-7-methyl-4-oxo-14-(propan-2-yl)-4,5,6,7,13,14-hexahydro-1,15-ethenopyrazolo[4,3-f][1,4,8,10]benzoxatriazacyclotridecine-12-carbonitrile], the IC50 at SRC was determined as 0.83 nM; at MET, 3.8 nM; in the test with MKN-45 cells [2], 1 nM; in the test on SNU-5 cells, 1 nM.
`C[C@H]1CNC(=O)c2c(N)nn3ccc(nc23)NCc2c(ccc(F)c2C#N)O1` [Compound 9, (7S)-3-amino-11-fluoro-7-methyl-4-oxo-4,5,6,7,13,14-hexahydro-1,15-ethenopyrazolo[4,3-f][1,4,8,10]benzoxatriazacyclotridecine-12-carbonitrile] displayed an IC50 in the test on MKN-45 cells [2] of 297 nM.
Regarding `FC(F)(F)c1ccc(CNc2ccc(Cc3c[nH]c4ncc(Cl)cc34)cn2)cn1` [Pexidartinib, reference compound], the IC50 is below 0.1 nM in the test with M-NFS-60 cells (CSF-1 0 ng/mL); 2 nM with M-NFS-60 cells (CSF-1 0.3 ng/mL); 146 nM in the test with M-NFS-60 cells (CSF-1 1 ng/mL); 212 nM in the test with M-NFS-60 cells (CSF-1 3 ng/mL); 380 nM in the test on M-NFS-60 cells (CSF-1 10 ng/mL); 595 nM in the test on M-NFS-60 cells (CSF-1 30 ng/mL). The IC50 in the test on M-NFS-60 cells (CSF-1 100 ng/mL) is 702 nM.
Regarding `CNC(=O)c1ccc(-c2cnc3ncc(Cc4ccc5ncccc5c4)n3n2)cc1F` [capmatinib], the IC50 with HCC827 cells [1] (Homo sapiens, HCC827, combination partner at 1 μM where combined, AZD9291 curves partial, read-out: HCC827 cell proliferation IC50) is above 10000 nM. Further, the “HCC827 cell proliferation IC50” value in the test on HCC827 cells [1] (combination partner at 1 μM where combined, AZD9291 curves partial) was “not active”. For the same compound, the “cell migration of MKN-45 cells, wound healing” value in the test on MKN-45 cells [3] is “inhibited”. The entries for the “cell migration of HCC827 cells, wound healing” value in the test with HCC827 cells [4] and in the test with HCC827 cells [4] (listed as campmatinib) were “minimum effect” and “minimal effect”, respectively.
